# From patent publication US20030212121A1, “Substituted N-(1,4,5,6-tetrahydro-cyclopentapyrazol-3-yl) derivatives, their production and use as pharmaceutical agents” (priority 2001, published 2003)
row,melting point,Structure (SMILES)
1,112 to 114 °C,CC(=O)c1ccc(-c2ccc(CC(=O)Nc3n[nH]c4c3CCC4)cc2)cc1 [Example 1.8]
2,179 to 181 °C,O=C(Cc1ccc(-c2ccccc2F)cc1)Nc1n[nH]c2c1CCC2 [Example 1.3]
3,180 to 181 °C,"O=C(Cc1ccc(-c2cccc(F)c2)cc1)Nc1n[nH]c2c1CCC2 [Example 1.0, 2-(3′-Fluoro-biphenyl-4-yl)-N-(1,4,5,6-tetrahydro-cyclopentapyrazol-3-yl)-acetamide]"
4,168 to 172 °C,COc1ccc(-c2ccc(CC(=O)Nc3n[nH]c4c3CCC4)cc2)cc1 [Example 1.6]
5,150 °C,CC(=O)c1cccc(-c2ccc(CC(=O)Nc3n[nH]c4c3CCC4)cc2)c1 [Example 1.7]
6,161 to 163 °C,O=C(Cc1ccc(-c2ccc(F)cc2)cc1)Nc1n[nH]c2c1CCC2 [Example 1.2]
7,150 °C,COc1ccccc1-c1ccc(CC(=O)Nc2n[nH]c3c2CCC3)cc1 [Example 1.4]
8,110 to 114 °C,COc1cccc(-c2ccc(CC(=O)Nc3n[nH]c4c3CCC4)cc2)c1 [Example 1.5]
